Where “and” joins values, the source holds several entries; their conditions need not be identical. Identical values can stand only once.
How the values were obtained:
PBMCs (T cells) = test: 10-day IFN-γ ELIspot for low-frequency T cells; format: cell-based, human; conditions: for Patients Proportion (%) responding: breast and ovarian cancer patients; for Patients Proportion (%) responding / Healthy Donor Proportion (%) responding: 10 μg/mL polypeptide, positive = p<0.05 vs no antigen and >1:100,000; for Healthy Donor Proportion (%) responding: healthy donors
Procedure: An equal volume of Hank's balanced salt solution (HBSS) was added to the blood samples. Twenty-five mL of diluted blood was overlaid onto 15 mL of Ficoll-Paque in a 50 mL conical test tube centrifuged at 374×g for 35 minutes at room temperature. Following centrifugation, the buffy coats were centrifuged (12 minutes, 216×g). The cell pellets were washed and resuspended in freezing media (RPMI supplemented with 12.5% HSA, penicillin, streptomycin, and 2 mM glutamine). Cells were adjusted to 20×10^6/mL cells, and an equal volume of cold 12.5% HSA RPMI containing 25% DMSO (Sigma D2650) was added. Cells were aliquoted and transferred to a −80° C. freezer. After overnight incubation, the vials were transferred to liquid nitrogen.
For in vitro assay, each vial of cells was thawed, and the contents were transferred to a test tube containing 12 mL of cell culture media. Following centrifugation, the cells were resuspended in 2-3 mL of medium, and viability was determined by dye exclusion. The mean number of PBMC purified from the blood of donors was 1.6±0.07×10^6 cells/mL of whole blood for healthy donors and 1.0±0.07×10^6/mL for cancer patients (p<0.0001). This cryopreservation and thawing procedure was optimized for recovery of antigen-specific T cell function (Disis et al., J. Immunol. Methods, 308(1-2):13-8 (2006)).
A 10-day ELIspot for detecting low-frequency T cells was used to determine reactivity to the FRα-derived polypeptides (Table 1). ELIspots were carried out in groups of two donors (two healthy donors, one healthy donor/one cancer patient, or two cancer patients). The assay was carried out as described elsewhere (Knutson et al., J. Clin. Invest., 107:477-84 (2001)). On day 1, 2.5×10^5 PBMCs/well were plated into 96-well plates in 3-well replicates in 200 μL of RPMI-1640 containing L-glutamine, penicillin, streptomycin, and 10% fetal calf serum (T-cell medium) in the presence or absence of 10 μg/mL polypeptide antigen. The cells were incubated at 37° C. and IL-2 (Zeptometric, Inc., Buffalo, N.Y.) was added to 10 U/mL on day 5. On day 8, 2.5×10^5/well irradiated autologous PBMCs and 10 μg/mL antigens were added. On day 9, the cells were transferred to an anti-IFN-γ-coated nitrocellulose (NC)-plate (Millipore Corporation, Bedford, Mass.). The NC-plate was incubated (37° C.) for a further 20-24 hours followed by washing three times using PBS containing 0.05% Tween-20. The plate was then incubated for 2.5 hours at RT in PBS with 5 μg/mL biotinylated anti-IFN-γ Ab, washed in PBS, and further incubated with 100 μL/well avidin-horseradish peroxidase (HRP, Vector Laboratories, Burlingame, Calif.)) for 2 hours at room temperature. After three washes in PBS, the plate was incubated with 100 μL/well HRP-colorimetric substrate (Vector Laboratories) for 20-30 minutes, rinsed with cool tap water, and allowed to dry completely. The nitrocellulose plates were read on an AID ELIspot reader (Cell Technology, Inc., Columbia, Md.; reader software v.3.1.1.). […] A 17-amino acid polypeptide (KISQAVHAAHAEINEAG; SEQ ID NO: 1) derived from chicken egg ovalbumin, produced in the same fashion as the FRα polypeptides, was used as a control polypeptide. […] The anti-IFN-γ and biotinylated anti-IFN-γ antibody pair were obtained from Mabtech (Sweden).
The T cell magnitude for each donor was summed across all 14 polypeptides which, along with the response multiplicity, was compared with age using regression. Student's t test was used for means unless the data were not normally distributed, in which case Mann-Whitney test was used. Fisher's Exact Test was used for comparing proportions. A proportion was considered elevated, relative to other polypeptides, if that proportion was statistically elevated relative to the mean proportion, 8.7%, which is the ratio of the total number of significant (p<0.05, two-tailed t test) polypeptide-specific responses over the total number of donors. […]

[1] = tested on: PBMC (CD4 and CD8 T cells); test: IFN-γ cytokine flow cytometry; format: cell-based, human; conditions: PBMC from three patients that had responded to FR56
Procedure: PBMC were cultured with peptide (10 μg/mL) for seven days. IL-2 (20 U/mL) were added on Day 3. After seven days, the cells were distributed into a 96-well plate with fresh irradiated autologous PBMC. Either medium alone or medium supplemented with PHA-L (20 μg/well) or recall polypeptide (10 μg/well) was added to the appropriate wells for 29 hours. Golgi-Stop was added for the last five hours followed by washing in PBS-0.5% BSA. The cells were resuspended in the same buffer containing anti-CD4-FITC and anti-CD8-APC for 30 minutes, followed by washes and fixing. The cells were permeabilized alone or with unconjugated anti-human IFN-γ (adsorption control) followed by washing and incubation with anti-human anti-IFN-γ-APC for 30 minutes. The cells were washed, fixed, and analyzed using a BD Biosciences FACscan flow cytometer and CellQuest Pro Software (version 4.0.2., BD Biosciences). A response to antigen was considered as positive if there was at least a 50% increase in IFN-γ[…] cells, and it was blocked by the adsorption control.

[2] = tested on: antibodies in diluted serums; format: binding, human

Substance: ACKRHFIQDTCLYECS (listed as Homo sapiens) [FR95]
- Patients Proportion (%) responding (PBMCs (T cells)): 23%
- Healthy Donor Proportion (%) responding (PBMCs (T cells)): 6%

Substance: CKSNWHKGWNWTSGFN (listed as Homo sapiens) [FR152]
- Patients Proportion (%) responding (PBMCs (T cells)): 23%
- Healthy Donor Proportion (%) responding (PBMCs (T cells)): 6%

Substance: DCEQWWEDCRTSYTCK (listed as Homo sapiens) [FR138]
- Patients Proportion (%) responding (PBMCs (T cells)): 30%
- Healthy Donor Proportion (%) responding (PBMCs (T cells)): 22%

Substance: KDVSYLYRFNWNHCGEMA (listed as Homo sapiens) [FR76]
- Patients Proportion (%) responding (PBMCs (T cells)): 13%
- Healthy Donor Proportion (%) responding (PBMCs (T cells)): 11%

Substance: KISQAVHAAHAEINEAG (listed as Gallus gallus) [ovalbumin-derived control polypeptide, reference compound]
- responses in patients vs healthy donors (PBMCs (T cells); comparison of the two populations (FIG. 3A)): not different

Substance: LGPWIQQVDQSWRKERV (listed as Homo sapiens) [FR113]
- Healthy Donor Proportion (%) responding (PBMCs (T cells)): 0%

Substance: LLVWVAVVGEAQTRI (listed as Homo sapiens) [FR12]
- Patients Proportion (%) responding (PBMCs (T cells)): 7%
- Healthy Donor Proportion (%) responding (PBMCs (T cells)): 6%

Substance: MTTQLLLLLVWVAVVGEAQ (listed as Homo sapiens) [FR5]
- Patients Proportion (%) responding (PBMCs (T cells)): 17%
- Healthy Donor Proportion (%) responding (PBMCs (T cells)): 6%

Substance: PWAAWPFLLSLALMLLWL (listed as Homo sapiens) [FR238]
- Patients Proportion (%) responding (PBMCs (T cells)): 23%

Substance: QCRPWRKNACCSTNT (listed as Homo sapiens) [FR56]
- patients with CD4 T cell response [1]: All three
- patients with CD8 T cell response [1]: two of three
- ELIspot response (PBMCs (T cells); healthy donor 15, no antigen control 5±1): 3±1 spots/well
- Healthy Donor Proportion (%) responding (PBMCs (T cells)): 6%
- recognition by ovarian vs breast cancer patients (PBMCs (T cells); p=0.05): recognized more often
- ELIspot response (PBMCs (T cells); patient 37, mean±s.e.m., n=3, no antigen 26±2): 183±17 spots/well

Substance: RTELLNVCMNAKHHKEK (listed as Homo sapiens) [FR30]
- Healthy Donor Proportion (%) responding (PBMCs (T cells)): 6%

Substance: RTSYTCKSNWHKGWNWT (listed as Homo sapiens) [FR147]
- Patients Proportion (%) responding (PBMCs (T cells)): 40%
- Healthy Donor Proportion (%) responding (PBMCs (T cells)): 22%

Substance: VARFYAAAMSGAGPWA (listed as Homo sapiens) [FR225]
- Patients Proportion (%) responding (PBMCs (T cells)): 7%
- Healthy Donor Proportion (%) responding (PBMCs (T cells)): 22%

Substance: VDQSWRKERVLNVPL (listed as Homo sapiens) [FR120]
- Patients Proportion (%) responding (PBMCs (T cells)): 13%
- Healthy Donor Proportion (%) responding (PBMCs (T cells)): 11%

Substance: WHKGWNWTSGFNKCAVGA (listed as Homo sapiens) [FR156]
- Patients Proportion (%) responding (PBMCs (T cells)): 23%
- Healthy Donor Proportion (%) responding (PBMCs (T cells)): 17%

Substance: tetanus toxin [TT]
- Antibody responses [2]: 30 ± 4 µg/mL and 27 ± 4 µg/mL
